Key:
α-glucosidase [1] = test: Kinetics of α-glucosidase inhibition (Lineweaver-Burk plot analysis); format: biochemical; conditions: for mode of α-glucosidase inhibition: Lineweaver-Burk plot; for Ki: pNPG 0.5–2.0 mM, 37 °C, 15 min
Protocol: Optimal amounts of compounds 1 and 2 used were determined based on the enzyme inhibitory activity assay.

α-glucosidase [2] = test: α-Glucosidase inhibitory effect assay with pNPG as substrate; format: biochemical; conditions: 37 °C, 15 min, pH 6.8, read-out: IC50, α-glucosidase inhibition
Protocol: The inhibitory effects were assayed as described preciously. The sample was dissolved in sodium phosphate buffer (PBS, pH 6.8) at three concentrations. A volume of 10 μL of the sample solution, 20 μL of PBS and 20 μL of […] p-nitrophenyl-α-D-glucopyranoside (pNPG) solution (in phosphate buffer) were mixed in a 96-well microplate and incubated at 37 °C for 5 min. […] After incubating at 37 °C for 15 min, the absorbance at 405 nm was recorded by a Spectra max 190 micro plate reader (Molecular Devices Inc.).

[3] = test system: murine small intestinal IEC-6 cells; test: Cytotoxic assay by MTT method; format: cell-based; conditions: for selectivity index (SI): CC50 (IEC-6) relative to IC50 (α-glucosidase)
Protocol: (§1) The cytotoxicity on murine small intestinal IEC-6 cells were assayed by MTT (3-[4,5-dimethyl thiazol-2-yl]-2,5-diphenyl tetrazolium bromide) method. The IEC-6 cells were cultured in Dulbecco’s modified Eagle’s medium (DMEM) supplemented with 5% fetal bovine serum (FBS) under a humidified atmosphere of 5% CO2 and 95% air at 37 °C. Cell suspension, 100 μL, at a density of 2 × 10^4 cell mL^−1 was plated in 96-well microtiter plates and exposed to different concentrations of compounds in triplicate for 72 h. The initial concentrations of compounds were 2 mg/mL in DMSO, and then were diluted into 625, 125, 25, 5, and 1 μg/mL with RPMI-1640 medium, respectively. The experiments were divided into blank control, testing compounds and the positive control groups, and each group was set up three parallels. Then, 10 μL of PBS containing MTT (final concentration: 0.5 mg/mL) was added to each well. After 4 h incubation at 37 °C, the supernatant was removed and 200 μL of DMSO was added to each well to solubilize the formazan crystals. After vigorous shaking, absorbance values were measured in a microplate reader (Bio-Rad, USA) at 570 nm. The cytotoxicity was represented at these concentrations as [(ODblank − ODdrug)/ODblank × 100%]. The CC50 value, defined as the compound concentration necessary to induce cell cytotoxicity by 50%, was calculated by SPSS (Statistical Product and Service Solutions) v19.0 software.

[4] = Cytotoxic assay by MTT method; format: cell-based, murine; conditions: murine, IEC-6 small intestinal cells, MTT, 72 h exposure; read-out: CC50, cytotoxicity on IEC-6 cell line
Protocol: as §1

Row | Structure (SMILES) | mode of α-glucosidase inhibition (α-glucosidase [1]) | Ki (α-glucosidase [1]) [µM] | IC50 (α-glucosidase [2]) [µM] | selectivity index (SI) [3] | CC50 at 72 h [4] [µM] | CC50 ([3]; MTT, 72 h exposure, read-out: CC50, cytotoxicity on IEC-6 cell line) [µM]
1 | O=C1CC(O)(c2ccccc2)C(c2cc(O)cc(=O)o2)c2cccc(O)c21 (stereo not shown) [Compound 3, Wailupemycin D] | – | – | 989 | 2.8 | 2750 | –
2 | O=C1CC(O)(c2ccccc2)C(c2cc(O)cc(=O)o2)c2cccc(O)c21 (stereo not shown) [Compound 4, Wailupemycin E] | – | – | 392 | 7.6 | – | 2980
3 | O=c1cc(O)cc(-c2c(-c3ccccc3)cc(O)c3c(O)cccc23)o1 [Compound 5, wailupemycin G] | – | – | 239 | 12.3 | 2950 | –

The next molecules have a lower IC50 (α-glucosidase [2]) than those just listed; values first:

Row | mode of α-glucosidase inhibition (α-glucosidase [1]) | Ki (α-glucosidase [1]) [µM] | IC50 (α-glucosidase [2]) [µM] | Structure (SMILES) | selectivity index (SI) [3] | CC50 at 72 h [4] [µM] | CC50 ([3]; MTT, 72 h exposure, read-out: CC50, cytotoxicity on IEC-6 cell line) [µM]
4 | competitive | 16.8 | 19.7 | O=C1C[C@](O)(c2ccccc2)[C@@H](c2cc(O)c(Cc3c(O)cc(-c4c(-c5ccccc5)cc(O)c5c(O)cccc45)oc3=O)c(=O)o2)c2cccc(O)c21 [Compound 1, Wailupemycin H] | 14.2 | 280 | –
5 | competitive | 6 | 8.3 | O=C1C[C@](O)(c2ccccc2)[C@H](c2cc(O)c(Cc3c(O)cc(-c4c(-c5ccccc5)cc(O)c5c(O)cccc45)oc3=O)c(=O)o2)c2cccc(O)c21 [Compound 2, Wailupemycin I] | 158.5 | 1320 | –

— publication PMC4731795, “New α-glucosidase inhibitors from marine algae-derived Streptomyces sp. OUCMDZ-3434” (Scientific Reports, 2016)
